Results as given in ChEMBL document CHEMBL2346556, “Synthesis, receptor binding and activity of iso and azakainoids” (Bioorg Med Chem Lett, 2013).
Active and inactive are the calls of the source. The rule behind the calls is not given here.

What was measured:
Aplysia californica [1] = assay: Agonist activity at glutamate receptor in Aplysia californica buccal S cluster neurons assessed as receptor non-desensitization at 30 mV holding potential at 1 mM by patch clamp technique
Aplysia californica [2] = assay: Agonist activity at glutamate receptor in Aplysia californica buccal S cluster neurons assessed as membrane depolarization at 1 mM by patch clamp technique
[3] = (§1) Displacement of [3H]glutamic acid from rat brain unspecified glutamate receptor by competitive binding assay
Rattus norvegicus [4] = species on record: Rattus norvegicus; assay: Displacement of [3H]kainic acid from rat brain unspecified glutamate receptor by competitive binding assay
Rattus norvegicus [5] = species on record: Rattus norvegicus; assay: Displacement of [3H]NMDA from rat brain unspecified glutamate receptor by competitive binding assay
Rattus norvegicus [6] = species on record: Rattus norvegicus; assay: Displacement of [3H]AMPA from rat brain unspecified glutamate receptor by competitive binding assay
Rattus norvegicus [7] = species on record: Rattus norvegicus; assay: as §1

Activity (Aplysia californica [2])	EC50 [3] [µM]	Activity (Rattus norvegicus [4])	Activity (Rattus norvegicus [5])	Activity (Rattus norvegicus [6])	SMILES	Activity (Aplysia californica [1])	Activity (Rattus norvegicus [7])
Active	12	inactive	inactive	inactive	O=C(O)C[C@H]1CNN[C@@H]1C(=O)O (relative stereo)	Active	
		inactive	inactive	inactive	O=C(O)C[C@H]1CNC[C@@H]1C(=O)O (relative stereo)		inactive

SMILES	Activity (Aplysia californica [2])	EC50 [3] [µM]	Activity (Rattus norvegicus [4])	Activity (Rattus norvegicus [5])	Activity (Rattus norvegicus [6])	Activity (Aplysia californica [1])	Activity (Rattus norvegicus [7])
O=C(O)C[C@H]1CCN[C@@H]1C(=O)O (relative stereo)			inactive	inactive	inactive		inactive
